{"source": "patent US8933230B2", "about": "“Phosphorus-containing group-substituted quinoline, its preparation process, medical composition containing the compounds and application” (priority 2011, dated 2015)", "experiment_in_all_cases": "KinomeScan kinase panel", "assay_type_in_all_cases": "binding", "key": {"FGFR3": {"target": "T1, FGFR3 (Homo sapiens, UniProt P22607)", "T1 construct": "purchased DiscoveRx Corporation (KinomeScan)", "T1 sequence (P22607 23-806)": "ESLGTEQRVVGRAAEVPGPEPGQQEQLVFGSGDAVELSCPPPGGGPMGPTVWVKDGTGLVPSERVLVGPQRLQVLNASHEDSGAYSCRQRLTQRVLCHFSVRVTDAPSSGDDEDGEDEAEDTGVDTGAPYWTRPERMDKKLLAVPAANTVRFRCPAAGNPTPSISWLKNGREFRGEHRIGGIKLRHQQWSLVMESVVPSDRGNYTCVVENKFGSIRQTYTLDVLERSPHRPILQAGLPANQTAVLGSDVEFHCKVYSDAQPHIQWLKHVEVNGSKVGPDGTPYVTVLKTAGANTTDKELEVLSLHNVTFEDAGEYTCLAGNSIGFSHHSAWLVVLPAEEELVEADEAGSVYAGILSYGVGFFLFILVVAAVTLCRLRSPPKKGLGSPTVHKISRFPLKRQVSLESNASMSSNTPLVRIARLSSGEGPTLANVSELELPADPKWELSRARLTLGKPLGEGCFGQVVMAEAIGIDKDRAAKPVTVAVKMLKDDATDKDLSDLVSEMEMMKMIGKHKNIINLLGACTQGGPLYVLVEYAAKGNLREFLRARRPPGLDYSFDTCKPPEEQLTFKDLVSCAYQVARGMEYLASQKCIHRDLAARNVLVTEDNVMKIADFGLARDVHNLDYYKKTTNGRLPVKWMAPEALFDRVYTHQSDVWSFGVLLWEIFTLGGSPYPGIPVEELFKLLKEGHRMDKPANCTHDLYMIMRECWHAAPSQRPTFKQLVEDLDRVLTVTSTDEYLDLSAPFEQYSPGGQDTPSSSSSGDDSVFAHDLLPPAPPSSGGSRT", "protocol": "(§1) In this example, the compound prepared in Example 10, N1-[4-[[7-[[1-(diethoxyphosphorylmethyl)-4-piperidinyl]methoxyl]-6-methoxyl-4-quinolyl]oxyl]-3-fluorophenyl]-N1′-(4-fluorophenyl)cyclopropane-1,1-dicarboxamide is tested for the inhibitory effect in the 442-kinase panel of KinomeScan™ (www.kinomescan.com) from DiscoveRx Corporation (4215 Sorrento Valley Blvd, San Diego, Calif. 92121) at 1000 nM of the compound concentration, the results are shown in the following Table 5:\n(§2) For the detailed information of the screening technique, see Fabian, M. A. et al, Nat., Biotechnol. 2005, 23, 329 and Karaman, M. W. et al, Nat., Biotechnol. 2008, 26, 127. It can be seen from the following representative results that, the compound according to the present invention has significant inhibitory effect on kinases including c-Met, KDR or VEGFR2, RET, PDGFR-β, c-KIT, Flt3, MEK5, DDR1, LOK, CSF1R, EPHA7, EPHA8, EPHB6, MKNK2, BLK, HIPK4, HCK, Flt4 and the mutants thereof"}, "PIP5K2B": {"target": "T2, PIP5K2B (Homo sapiens, UniProt P78356)", "T2 construct": "purchased DiscoveRx Corporation (KinomeScan)", "protocol": "as §1, §2"}, "ARK5": {"target": "T3, ARK5 (Homo sapiens, UniProt O60285)", "T3 construct": "purchased DiscoveRx Corporation (KinomeScan)", "protocol": "as §1, §2"}, "PDGFRA": {"target": "T4, PDGFRA (Homo sapiens, UniProt P16234)", "T4 construct": "purchased DiscoveRx Corporation (KinomeScan panel)", "T4 sequence (P16234 24-1089)": "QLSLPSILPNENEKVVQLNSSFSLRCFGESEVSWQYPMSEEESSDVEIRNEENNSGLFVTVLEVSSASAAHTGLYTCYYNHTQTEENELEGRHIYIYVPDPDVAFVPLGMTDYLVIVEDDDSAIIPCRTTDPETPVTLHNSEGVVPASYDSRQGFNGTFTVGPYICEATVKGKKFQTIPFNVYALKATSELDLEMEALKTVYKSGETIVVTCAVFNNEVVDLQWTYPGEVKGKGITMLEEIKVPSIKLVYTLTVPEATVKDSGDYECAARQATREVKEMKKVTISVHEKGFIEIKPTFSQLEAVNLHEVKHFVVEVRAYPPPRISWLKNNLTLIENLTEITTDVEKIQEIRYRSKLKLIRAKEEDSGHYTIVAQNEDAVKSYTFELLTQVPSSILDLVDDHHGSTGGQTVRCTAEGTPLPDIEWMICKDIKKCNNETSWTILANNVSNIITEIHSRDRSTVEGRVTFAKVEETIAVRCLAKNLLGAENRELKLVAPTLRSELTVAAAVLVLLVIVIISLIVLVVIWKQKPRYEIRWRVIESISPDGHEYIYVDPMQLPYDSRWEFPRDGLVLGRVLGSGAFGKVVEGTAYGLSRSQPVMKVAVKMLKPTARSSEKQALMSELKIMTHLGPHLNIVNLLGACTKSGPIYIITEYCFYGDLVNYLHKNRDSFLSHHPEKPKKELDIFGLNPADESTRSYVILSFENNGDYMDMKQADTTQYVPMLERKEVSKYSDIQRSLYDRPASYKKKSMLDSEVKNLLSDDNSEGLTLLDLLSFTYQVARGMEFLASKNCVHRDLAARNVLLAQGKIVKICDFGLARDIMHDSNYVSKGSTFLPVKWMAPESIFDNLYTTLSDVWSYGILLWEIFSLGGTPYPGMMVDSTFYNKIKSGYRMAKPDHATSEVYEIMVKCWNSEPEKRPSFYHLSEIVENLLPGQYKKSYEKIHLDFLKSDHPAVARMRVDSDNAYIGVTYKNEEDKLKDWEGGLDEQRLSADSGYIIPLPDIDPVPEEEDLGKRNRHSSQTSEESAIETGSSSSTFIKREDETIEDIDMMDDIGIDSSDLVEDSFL", "protocol": "as §1, §2"}, "SGK3": {"target": "T5, SGK3 (Homo sapiens, UniProt Q96BR1)", "T5 construct": "purchased DiscoveRx Corporation (KinomeScan)", "protocol": "as §1, §2"}, "NDR2": {"target": "T6, NDR2 (Homo sapiens, UniProt Q9Y2H1)", "T6 construct": "purchased DiscoveRx Corporation (KinomeScan)", "protocol": "as §1, §2"}, "RIOK2": {"target": "T7, RIOK2 (Homo sapiens, UniProt Q9BVS4)", "T7 construct": "purchased DiscoveRx Corporation", "protocol": "as §1, §2"}, "EPHA8": {"target": "T8, EPHA8 (Homo sapiens, UniProt P29322)", "T8 construct": "purchased DiscoveRx Corporation (KinomeScan)", "protocol": "as §1, §2"}, "MARK1": {"target": "T9, MARK1 (Homo sapiens, UniProt Q9P0L2)", "T9 construct": "purchased DiscoveRx Corporation (KinomeScan)", "protocol": "as §1, §2"}, "PIK3CA(18DDL)": {"target": "T10, PIK3CA(18DDL) (Homo sapiens, UniProt P42336, I800L)", "T10 construct": "purchased DiscoveRx Corporation (KinomeScan)", "T10 sequence (P42336 whole entry I800L)": "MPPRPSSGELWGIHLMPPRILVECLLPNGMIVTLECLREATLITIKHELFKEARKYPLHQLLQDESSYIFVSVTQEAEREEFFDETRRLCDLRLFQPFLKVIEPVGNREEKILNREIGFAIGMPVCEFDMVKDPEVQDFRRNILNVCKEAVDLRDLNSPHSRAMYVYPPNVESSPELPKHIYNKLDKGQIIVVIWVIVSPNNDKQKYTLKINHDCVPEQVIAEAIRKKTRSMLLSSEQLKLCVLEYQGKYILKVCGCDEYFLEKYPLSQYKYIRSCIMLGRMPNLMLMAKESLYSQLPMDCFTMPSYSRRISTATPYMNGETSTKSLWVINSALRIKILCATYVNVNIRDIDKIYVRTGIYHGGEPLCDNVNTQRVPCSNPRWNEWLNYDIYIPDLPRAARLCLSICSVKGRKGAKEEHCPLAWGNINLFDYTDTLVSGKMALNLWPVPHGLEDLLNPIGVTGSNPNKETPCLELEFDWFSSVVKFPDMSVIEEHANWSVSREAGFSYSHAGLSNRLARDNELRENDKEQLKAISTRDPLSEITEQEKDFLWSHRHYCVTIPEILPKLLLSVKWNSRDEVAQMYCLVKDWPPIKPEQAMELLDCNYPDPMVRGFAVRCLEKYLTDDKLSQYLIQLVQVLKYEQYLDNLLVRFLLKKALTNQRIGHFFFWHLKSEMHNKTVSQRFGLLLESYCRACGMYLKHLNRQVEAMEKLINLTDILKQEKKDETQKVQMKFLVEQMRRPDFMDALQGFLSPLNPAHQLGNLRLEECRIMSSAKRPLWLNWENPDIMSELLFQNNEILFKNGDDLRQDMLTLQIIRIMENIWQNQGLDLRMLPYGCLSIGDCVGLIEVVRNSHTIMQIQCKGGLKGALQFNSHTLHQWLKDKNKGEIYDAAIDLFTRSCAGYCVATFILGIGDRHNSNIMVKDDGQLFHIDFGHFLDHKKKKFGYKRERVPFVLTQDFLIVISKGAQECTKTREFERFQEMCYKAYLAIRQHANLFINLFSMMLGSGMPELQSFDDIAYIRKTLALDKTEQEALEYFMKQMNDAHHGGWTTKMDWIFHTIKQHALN", "protocol": "as §1, §2"}, "[1]": {"target": "T11, RPS6KA4(kin.Dom.1-N-termimal) (Homo sapiens, UniProt O75676)", "T11 construct": "kin.Dom.1; purchased DiscoveRx Corporation", "T11 sequence (O75676 33-301 limits assumed)": "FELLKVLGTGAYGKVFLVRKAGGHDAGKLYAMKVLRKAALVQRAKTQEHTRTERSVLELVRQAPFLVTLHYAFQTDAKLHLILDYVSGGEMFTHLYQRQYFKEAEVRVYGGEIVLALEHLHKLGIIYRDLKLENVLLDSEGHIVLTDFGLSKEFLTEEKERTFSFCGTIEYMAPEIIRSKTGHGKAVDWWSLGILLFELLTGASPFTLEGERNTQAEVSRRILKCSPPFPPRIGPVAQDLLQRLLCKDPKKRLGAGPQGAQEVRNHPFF", "protocol": "as §1, §2"}, "ROCK1": {"target": "T12, ROCK1 (Homo sapiens, UniProt Q13464)", "T12 construct": "purchased DiscoveRx Corporation", "protocol": "as §1, §2"}, "SBK1": {"target": "T13, SBK1 (Homo sapiens, UniProt Q52WX2)", "T13 construct": "purchased DiscoveRx Corporation (KinomeScan)", "protocol": "as §1, §2"}, "ERK4": {"target": "T14, ERK4 (Homo sapiens, UniProt P31152)", "T14 construct": "purchased DiscoveRx Corporation (KinomeScan)", "protocol": "as §1, §2"}, "PRKCI": {"target": "T15, PRKCI (Homo sapiens, UniProt P41743)", "T15 construct": "purchased DiscoveRx Corporation (KinomeScan)", "protocol": "as §1, §2"}, "MET": {"target": "T16, MET (Homo sapiens, UniProt P08581)", "T16 construct": "purchased DiscoveRx Corporation (KinomeScan)", "protocol": "as §1, §2"}, "AKT1": {"target": "T17, AKT1 (Homo sapiens, UniProt P31749)", "T17 construct": "purchased DiscoveRx Corporation (KinomeScan)", "protocol": "as §1, §2"}, "WEE2": {"target": "T18, WEE2 (Homo sapiens, UniProt P0C1S8)", "T18 construct": "purchased DiscoveRx Corporation (KinomeScan service)", "protocol": "as §1, §2"}, "TNNI3K": {"target": "T19, TNNI3K (Homo sapiens, UniProt Q59H18)", "T19 construct": "purchased DiscoveRx Corporation (KinomeScan)", "protocol": "as §1, §2"}, "[2]": {"target": "T20, JAK2(JH1domain-catalytic) (Homo sapiens, UniProt O60674)", "T20 construct": "JAK2(JH1domain-catalytic); purchased DiscoveRx Corporation (KinomeScan)", "T20 sequence (O60674 849-1124 limits assumed)": "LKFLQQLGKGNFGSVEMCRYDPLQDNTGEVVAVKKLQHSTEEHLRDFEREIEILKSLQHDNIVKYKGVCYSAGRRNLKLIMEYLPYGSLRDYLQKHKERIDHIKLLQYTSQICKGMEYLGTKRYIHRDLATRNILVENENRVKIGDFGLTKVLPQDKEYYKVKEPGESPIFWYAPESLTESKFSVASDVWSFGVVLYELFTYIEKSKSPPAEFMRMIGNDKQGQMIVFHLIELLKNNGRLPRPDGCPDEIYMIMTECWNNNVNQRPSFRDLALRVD", "protocol": "as §1, §2"}, "CSNK1G1": {"target": "T21, CSNK1G1 (Homo sapiens, UniProt Q9HCP0)", "T21 construct": "purchased DiscoveRx Corporation (KinomeScan)", "protocol": "as §1, §2"}, "PRKG2": {"target": "T22, PRKG2 (Homo sapiens, UniProt Q13237)", "T22 construct": "purchased DiscoveRx Corporation (KinomeScan)", "protocol": "as §1, §2"}, "ERK2": {"target": "T23, ERK2 (Homo sapiens, UniProt P28482)", "T23 construct": "purchased DiscoveRx Corporation (KinomeScan)", "protocol": "as §1, §2"}, "BMPR1B": {"target": "T24, BMPR1B (Homo sapiens, UniProt O00238)", "T24 construct": "purchased DiscoveRx Corporation (KinomeScan)", "T24 sequence (O00238 14-502)": "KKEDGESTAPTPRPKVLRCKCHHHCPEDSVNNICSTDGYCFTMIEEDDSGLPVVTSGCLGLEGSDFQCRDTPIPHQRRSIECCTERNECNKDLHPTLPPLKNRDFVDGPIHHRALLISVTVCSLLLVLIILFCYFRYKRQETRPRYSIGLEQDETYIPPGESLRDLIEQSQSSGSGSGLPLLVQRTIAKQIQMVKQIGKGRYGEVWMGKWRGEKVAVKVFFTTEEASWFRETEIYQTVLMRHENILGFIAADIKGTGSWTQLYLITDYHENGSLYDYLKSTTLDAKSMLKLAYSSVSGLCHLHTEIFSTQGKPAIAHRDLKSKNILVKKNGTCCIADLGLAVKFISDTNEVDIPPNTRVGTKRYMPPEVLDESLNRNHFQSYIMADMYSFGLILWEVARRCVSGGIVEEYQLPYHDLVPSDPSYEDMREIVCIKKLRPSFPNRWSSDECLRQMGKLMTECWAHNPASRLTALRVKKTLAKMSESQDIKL", "protocol": "as §1, §2"}, "BLK": {"target": "T25, BLK (Homo sapiens, UniProt P51451)", "T25 construct": "purchased DiscoveRx Corporation (KinomeScan)", "protocol": "as §1, §2"}, "CAMK2A": {"target": "T26, CAMK2A (Homo sapiens, UniProt Q9UQM7)", "T26 construct": "purchased DiscoveRx Corporation (KinomeScan)", "protocol": "as §1, §2"}, "[3]": {"target": "T27, ABL1(F317L)-nonphosphorylated (Homo sapiens, UniProt P00519, F317L)", "T27 construct": "purchased DiscoveRx Corporation (KinomeScan)", "protocol": "as §1, §2"}, "CTK": {"target": "T28, CTK (Homo sapiens, UniProt P42679)", "T28 construct": "purchased DiscoveRx Corporation (KinomeScan)", "protocol": "as §1, §2"}, "PRKX": {"target": "T29, PRKX (Homo sapiens, UniProt P51817)", "T29 construct": "purchased DiscoveRx Corporation", "protocol": "as §1, §2"}, "MKNK2": {"target": "T30, MKNK2 (Homo sapiens, UniProt Q9HBH9)", "T30 construct": "purchased DiscoveRx Corporation (KinomeScan)", "protocol": "as §1, §2"}, "NEK4": {"target": "T31, NEK4 (Homo sapiens, UniProt P51957)", "T31 construct": "purchased DiscoveRx Corporation (KinomeScan panel)", "protocol": "as §1, §2"}, "TSSK1B": {"target": "T32, TSSK1B (Homo sapiens, UniProt Q9BXA7)", "T32 construct": "purchased DiscoveRx Corporation (KinomeScan)", "protocol": "as §1, §2"}, "KIT(V559D)": {"target": "T33, KIT(V559D) (Homo sapiens, UniProt P10721, V559D)", "T33 construct": "purchased DiscoveRx Corporation (KinomeScan)", "T33 sequence (P10721 26-976 V559D)": "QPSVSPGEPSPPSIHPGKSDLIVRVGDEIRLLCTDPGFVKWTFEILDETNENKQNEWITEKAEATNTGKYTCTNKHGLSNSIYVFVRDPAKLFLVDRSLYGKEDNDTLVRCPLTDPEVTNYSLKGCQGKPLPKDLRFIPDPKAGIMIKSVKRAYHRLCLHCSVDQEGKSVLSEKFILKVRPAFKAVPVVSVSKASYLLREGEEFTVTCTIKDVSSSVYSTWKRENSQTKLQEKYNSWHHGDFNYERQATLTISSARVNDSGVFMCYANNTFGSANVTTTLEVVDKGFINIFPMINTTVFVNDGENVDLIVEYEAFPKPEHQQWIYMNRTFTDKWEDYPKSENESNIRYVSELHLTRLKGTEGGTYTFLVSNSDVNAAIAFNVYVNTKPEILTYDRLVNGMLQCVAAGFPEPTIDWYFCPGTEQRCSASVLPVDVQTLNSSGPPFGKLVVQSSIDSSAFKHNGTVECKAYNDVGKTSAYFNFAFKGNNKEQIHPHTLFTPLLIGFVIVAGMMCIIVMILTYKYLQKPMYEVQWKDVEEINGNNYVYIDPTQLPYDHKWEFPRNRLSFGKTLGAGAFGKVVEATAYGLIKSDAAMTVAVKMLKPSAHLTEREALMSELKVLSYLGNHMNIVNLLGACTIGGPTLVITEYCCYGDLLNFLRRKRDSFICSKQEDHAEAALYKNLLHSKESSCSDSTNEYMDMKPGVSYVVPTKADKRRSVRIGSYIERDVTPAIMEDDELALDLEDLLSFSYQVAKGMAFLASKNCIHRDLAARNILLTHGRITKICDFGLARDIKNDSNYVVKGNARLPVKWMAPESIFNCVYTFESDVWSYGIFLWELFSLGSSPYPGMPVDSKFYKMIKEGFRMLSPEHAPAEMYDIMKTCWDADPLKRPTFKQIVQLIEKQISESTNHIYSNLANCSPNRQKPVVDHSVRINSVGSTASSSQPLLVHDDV", "protocol": "as §1, §2"}, "CAMK1G": {"target": "T34, CAMK1G (Homo sapiens, UniProt Q96NX5)", "T34 construct": "purchased DiscoveRx Corporation (KinomeScan)", "protocol": "as §1, §2"}, "PFTK": {"target": "T35, PFTK (Homo sapiens, UniProt O94921)", "T35 construct": "purchased DiscoveRx Corporation (KinomeScan)", "protocol": "as §1, §2"}}, "data": [{"compound": "CCOP(=O)(CN1CCC(COc2cc3nccc(Oc4ccc(NC(=O)C5(C(=O)Nc6ccc(F)cc6)CC5)cc4F)c3cc2OC)CC1)OCC", "note": "[Example 10, N1-[4-[[7-[[1-(diethoxyphosphorylmethyl)-4-piperidinyl]methoxyl]-6-methoxyl-4-quinolyl]oxyl]-3-fluorophenyl]-N1′-(4-fluorophenyl)cyclopropane-1,1-dicarboxamide]", "values": [{"measurement": "% Ctrl@1000 nM", "setting": "FGFR3", "result": 69, "unit": "% Ctrl"}, {"measurement": "% Ctrl@1000 nM", "setting": "PIP5K2B", "result": 100, "unit": "% Ctrl"}, {"measurement": "% Ctrl@1000 nM", "setting": "ARK5", "result": 100, "unit": "% Ctrl"}, {"measurement": "% Ctrl@1000 nM", "setting": "PDGFRA", "result": 1.8, "unit": "% Ctrl"}, {"measurement": "% Ctrl@1000 nM", "setting": "SGK3", "result": 75, "unit": "% Ctrl"}, {"measurement": "% Ctrl@1000 nM", "setting": "NDR2", "result": 82, "unit": "% Ctrl"}, {"measurement": "% Ctrl@1000 nM", "setting": "RIOK2", "result": 100, "unit": "% Ctrl"}, {"measurement": "% Ctrl@1000 nM", "setting": "EPHA8", "result": 0.15, "unit": "% Ctrl"}, {"measurement": "% Ctrl@1000 nM", "setting": "MARK1", "result": 100, "unit": "% Ctrl"}, {"measurement": "% Ctrl@1000 nM", "setting": "PIK3CA(18DDL)", "result": 100, "unit": "% Ctrl"}, {"measurement": "% Ctrl@1000 nM", "setting": "[1]", "result": 76, "unit": "% Ctrl"}, {"measurement": "% Ctrl@1000 nM", "setting": "ROCK1", "result": 100, "unit": "% Ctrl"}, {"measurement": "% Ctrl@1000 nM", "setting": "SBK1", "result": 100, "unit": "% Ctrl"}, {"measurement": "% Ctrl@1000 nM", "setting": "ERK4", "result": 100, "unit": "% Ctrl"}, {"measurement": "% Ctrl@1000 nM", "setting": "PRKCI", "result": 100, "unit": "% Ctrl"}, {"measurement": "% Ctrl@1000 nM", "setting": "MET", "result": 7.7, "unit": "% Ctrl"}, {"measurement": "% Ctrl@1000 nM", "setting": "AKT1", "result": 100, "unit": "% Ctrl"}, {"measurement": "% Ctrl@1000 nM", "setting": "WEE2", "result": 100, "unit": "% Ctrl"}, {"measurement": "% Ctrl@1000 nM", "setting": "TNNI3K", "result": 94, "unit": "% Ctrl"}, {"measurement": "% Ctrl@1000 nM", "setting": "[2]", "result": 100, "unit": "% Ctrl"}, {"measurement": "% Ctrl@1000 nM", "setting": "CSNK1G1", "result": 100, "unit": "% Ctrl"}, {"measurement": "% Ctrl@1000 nM", "setting": "PRKG2", "result": 100, "unit": "% Ctrl"}, {"measurement": "% Ctrl@1000 nM", "setting": "ERK2", "result": 100, "unit": "% Ctrl"}, {"measurement": "% Ctrl@1000 nM", "setting": "BMPR1B", "result": 100, "unit": "% Ctrl"}, {"measurement": "% Ctrl@1000 nM", "setting": "BLK", "result": 0.5, "unit": "% Ctrl"}, {"measurement": "% Ctrl@1000 nM", "setting": "CAMK2A", "result": 100, "unit": "% Ctrl"}, {"measurement": "% Ctrl@1000 nM", "setting": "[3]", "result": 10, "unit": "% Ctrl"}, {"measurement": "% Ctrl@1000 nM", "setting": "CTK", "result": 100, "unit": "% Ctrl"}, {"measurement": "% Ctrl@1000 nM", "setting": "PRKX", "result": 81, "unit": "% Ctrl"}, {"measurement": "% Ctrl@1000 nM", "setting": "MKNK2", "result": 0.05, "unit": "% Ctrl"}, {"measurement": "% Ctrl@1000 nM", "setting": "NEK4", "result": 100, "unit": "% Ctrl"}, {"measurement": "% Ctrl@1000 nM", "setting": "TSSK1B", "result": 100, "unit": "% Ctrl"}, {"measurement": "% Ctrl@1000 nM", "setting": "KIT(V559D)", "result": 0.15, "unit": "% Ctrl"}, {"measurement": "% Ctrl@1000 nM", "setting": "CAMK1G", "result": 88, "unit": "% Ctrl"}, {"measurement": "% Ctrl@1000 nM", "setting": "PFTK", "result": 100, "unit": "% Ctrl"}]}]}
